Counter-ions that a name gives are not always drawn.

Test system in one data set: not given
Experiment: not given
Conditions: not given
Turning to `CCN1CCN(C(=O)[C@H]2CC[C@H](Nc3nccc(-n4ccc5c(OCC6CCS(=O)(=O)C6)cccc54)n3)CC2)C[C@H]1C` (stereo partly drawn) (as salt: HCl) [Compound 3, (4-{4-[4-(1,1-Dioxo-tetrahydro-1λ^6-thiophen-3-ylmethoxy)-indol-1-yl]-pyrimidin-2-ylamino}-cyclohexyl)-((R)-4-ethyl-3-methyl-piperazin-1-yl)-methanone], the melting point amounted to 225 °C.

The next data set concerns T1, JNK.
T1 construct: Human JNK2α2 assay contains 1 nM enzyme; Human JNK1α1 assay contains 2 nM enzyme
Put plainly: JNK Assay in vitro (phosphorylation of GST-ATF2 (19-96) with [γ-33P] ATP). In kind it is biochemical. The note with it: JNK isoform not stated for Table 1 (method describes human JNK1α1, JNK2α2, JNK3); Km concentrations of ATP and substrate. As to the method: JNK activity was measured by phosphorylation of GST-ATF2 (19-96) with [γ-^33P] ATP. The enzyme reaction was conducted at Km concentrations of ATP and the substrate at final volume of 40 μl in buffer containing 25 mM HEPES, pH 7.5, 2 mM dithiothreitol, 150 mM NaCl, 20 mM MgCl2, 0.001% Tween® 20, 0.1% BSA and 10% DMSO. Human JNK2α2 assay contains 1 nM enzyme, 1 μM ATF2, 8 μM ATP with 1 uCi [γ-^33P] ATP. Human JNK1α1 assay contains 2 nM enzyme, 1 μM ATF2, 6 μM ATP with 1 μCi [γ-^33P] ATP. Human JNK3 (Upstate Biotech #14-501M) assay contains 2 nM enzyme, 1 μM ATF2, 4 μM ATP with 1 μCi [γ-^33P] ATP. The enzyme assay was carried out in the presence or absence of several compound concentrations. JNK and compound were pre-incubated for 10 min., followed by initiation of the enzymatic reaction by adding ATP and the substrate. The reaction mixture was incubated at 30° C. for 30 min. At the end of incubation, the reaction was terminated by transferring 25 μl of the reaction mixture to 150 μl of 10% glutathione Sepharose® slurry (Amersham #27-4574-01) containing 135 mM EDTA. The reaction product was captured on the affinity resin, and washed on a filtration plate (Millipore, MABVNOB50) with phosphate buffered saline for six times to remove free radionucleotide. The incorporation of ^33P into ATF2 was quantified on a microplate scintillation counter (Packard Topcount). Compound inhibition potency on JNK was measured by IC50 value generated from ten concentration inhibition curves fitted into the 3-parameter model: % inhibition=Maximum/(1+(IC50/[Inhibitor])^slope). Data were analyzed on Microsoft Excel for parameter estimation.
`CN1C2CCC1CN(C(=O)[C@H]1CC[C@H](Nc3nccc(-n4ccc5c(OCCCS(C)(=O)=O)cccc54)n3)CC1)C2` [Compound 22]: the half-maximal inhibitory concentration (IC50) turned out to be 0.0998 µM. On the same count and under the same terms, for `C[C@@H]1CN(C(=O)[C@H]2CC[C@H](Nc3nccc(-n4ncc5c(OCCCS(C)(=O)=O)cccc54)n3)CC2)CCN1` [Compound 24, (4-{4-[4-(3-Methanesulfonyl-propoxy)-indazol-1-yl]-pyrimidin-2-ylamino}-cyclohexyl)-((R)-3-methyl-piperazin-1-yl)-methanone] the value was 0.0597 µM.

As for `C[C@H]1CN(C(=O)[C@H]2CC[C@H](Nc3nccc(-n4ncc5c(OCC6CCS(=O)(=O)C6)cccc54)n3)CC2)CCN1` (stereo partly drawn) [Compound 25, (4-{4-[4-(1,1-Dioxo-tetrahydro-1λ^6-thiophen-3-ylmethoxy)-indazol-1-yl]-pyrimidin-2-ylamino}-cyclohexyl)-((S)-3-methyl-piperazin-1-yl)-methanone], the half-inhibitory concentration (IC50) turned out to be 0.0458 µM.

In turn, `CCOC1CC2CCC(C1)N2C(=O)[C@H]1CC[C@H](Nc2nccc(-n3ccc4c(OCCCS(C)(=O)=O)cccc43)n2)CC1` (stereo partly shown) [Compound 26, (3-Ethoxy-8-aza-bicyclo[3.2.1]oct-8-yl)-(4-{4-[4-(3-methanesulfonyl-propoxy)-indol-1-yl]-pyrimidin-2-ylamino}-cyclohexyl)-methanone; compound with formic acid] yielded an IC50 of 0.0894 µM. Consider `C[C@H]1CN(C(=O)[C@H]2CC[C@H](Nc3nccc(-n4ncc5c(OCC6CCS(=O)(=O)C6)cccc54)n3)CC2)CCN1` (stereo partly drawn) [Compound 27, (4-{4-[4-(1,1-Dioxo-tetrahydro-1λ^6-thiophen-3-ylmethoxy)-indazol-1-yl]-pyrimidin-2-ylamino}-cyclohexyl)-((S)-3-methyl-piperazin-1-yl)-methanone], for which inhibition was half-maximal at 0.0606 µM (IC50). Consider `CC1(C)CN(C(=O)[C@H]2CC[C@H](Nc3nccc(-n4ccc5c(OCC6CCS(=O)(=O)C6)cccc54)n3)CC2)CCN1` (stereo partly shown) [Compound 28, (3,3-Dimethyl-piperazin-1-yl)-(4-{4-[4-(1,1-dioxo-tetrahydro-1λ^6-thiophen-3-ylmethoxy)-indol-1-yl]-pyrimidin-2-ylamino}-cyclohexyl)-methanone], for which the midpoint of inhibition, the IC50, lay at 0.0978 µM. On the same count and under the same terms, for `CCN1CCCC(NC(=O)[C@H]2CC[C@H](Nc3nccc(-n4ccc5c(OCC6CCS(=O)(=O)C6)cccc54)n3)CC2)C1` (stereo partly shown) [Compound 29, 4-{4-[4-(1,1-Dioxo-tetrahydro-1λ^6-thiophen-3-ylmethoxy)-indol-1-yl]-pyrimidin-2-ylamino}-cyclohexanecarboxylic acid (1-ethyl-piperidin-3-yl)-amide] the value was 0.0928 µM. In the case of `CCN1CCC[C@H]1CNC(=O)[C@H]1CC[C@H](Nc2nccc(-n3ccc4c(OCCCS(C)(=O)=O)cccc43)n2)CC1` [Compound 30, 4-{4-[4-(3-Methanesulfonyl-propoxy)-indol-1-yl]-pyrimidin-2-ylamino}-cyclohexanecarboxylic acid ((S)-1-ethyl-pyrrolidin-2-ylmethyl)-amide], half-maximal inhibition (IC50) was put at 0.0854 µM. The same measure, in the same setting: under `CCN1CCC[C@@H]1CNC(=O)[C@H]1CC[C@H](Nc2nccc(-n3ccc4c(OCCCS(C)(=O)=O)cccc43)n2)CC1` [Compound 31, 4-{4-[4-(3-Methanesulfonyl-propoxy)-indol-1-yl]-pyrimidin-2-ylamino}-cyclohexanecarboxylic acid ((R)-1-ethyl-pyrrolidin-2-ylmethyl)-amide] stands 0.0977 µM.

These data come from US8642601B2, “Inhibitors of JNK” (Roche Palo Alto LLC, priority 2010, dated 2014).
